Columns and labels:
A549 = assay: Concentration required to inhibit growth of human tumor A549 (NSCL) cell line.; assay type: functional, cell-based
A121 = assay: Concentration required to inhibit growth of human tumor A121 (ovarian) cell line.; assay type: functional, cell-based
HT-29 = assay: Concentration required to inhibit growth of human tumor HT-29 (colon) cell line.; assay type: functional, cell-based
MCF7 [1] = assay: Concentration required to inhibit growth of human tumor MCF-7 (breast) cell line.; assay type: functional, cell-based
MCF7 [2] = assay: Concentration required to inhibit growth of human tumor […] (breast) cell line.; assay type: functional, cell-based
Mus musculus [3] = assay: Log cell kill = T-C(days)/3.32xTd (Tumor doubling time in days, 1.4 in this assay )on day 7 at 7.7 mg/kg/day in B16 melanoma implanted sc in B6D2F1 mice; assay type: ADME, organism-based; design: route subcutaneous; conditions: in vivo
Mus musculus [4] = assay: Log cell kill = T-C(days)/3.32xTd (Tumor doubling time in days, 1.4 in this assay )on day 9 at 4.8 mg/kg/day in B16 melanoma implanted sc in B6D2F1 mice; assay type: ADME, organism-based; design: route subcutaneous; conditions: in vivo
Mus musculus [5] = assay: Tumor growth inhibition of B16 melanoma implanted sc in B6D2F1 mice when 0.4 mL/mouse administered i.v. on day 7 at 7.7 mg/kg/day; assay type: functional; conditions: route intravenous
Mus musculus [6] = assay: Tumor growth inhibition of B16 melanoma implanted sc in B6D2F1 mice when 0.4 mL/mouse administered i.v. on day 9 at 4.8 mg/kg/day; assay type: functional; conditions: route intravenous
Mus musculus [7] = assay: Tumor growth delay of B16 melanoma implanted sc in B6D2F1 mice when 0.4 mL/mouse administered i.v. on day 7 at 7.7 mg/kg/day; assay type: functional; conditions: route intravenous
Mus musculus [8] = assay: Tumor growth delay of B16 melanoma implanted sc in B6D2F1 mice when 0.4 mL/mouse administered i.v. on day 9 at 4.8 mg/kg/day; assay type: functional; conditions: route intravenous
Mus musculus [9] = assay: Tumor growth delay of B16 melanoma implanted sc in B6D2F1 mice when 0.4 mL/mouse administered i.v. on day 5 at 12.4 mg/kg/day; assay type: functional; conditions: route intravenous
Mus musculus [10] = assay: Tumor growth inhibition of B16 melanoma implanted sc in B6D2F1 mice when 0.4 mL/mouse administered i.v. on day 5 at 12.4 mg/kg/day; assay type: functional; conditions: route intravenous
Mus musculus [11] = assay: Log cell kill = T-C(days)/3.32xTd (Tumor doubling time in days, 1.4 in this assay ) on day 5 at 12.4 mg/kg/day in B16 melanoma implanted sc in B6D2F1 mice; assay type: ADME, organism-based; design: route subcutaneous; conditions: in vivo
A2780 [12] = assay: Cytotoxicity against A2780-C25, oxaliplatin-resistant Ovarian carcinoma cell line; assay type: functional, cell-based, Homo sapiens
A2780 [13] = assay: Cytotoxicity against A2780-WT, human ovarian carcinoma cell line; assay type: functional, cell-based
A2780 [14] = assay: Cytotoxicity against A2780-CP3, cisplatin-resistant Ovarian carcinoma cell line; assay type: functional, cell-based, Homo sapiens
A2780 [15] = assay: Cytotoxicity against A2780-DX5, Doxorubicin-resistant Ovarian carcinoma cell line; assay type: functional, cell-based, Homo sapiens
Mus musculus [16] = assay: Log cell kill = T-C(days)/3.32xTd (Tumor doubling time in days, 1.4 in this assay )on day 7 at 12.4 mg/kg/day in B16 melanoma implanted sc in B6D2F1 mice; assay type: ADME, organism-based; design: route subcutaneous; conditions: in vivo
Mus musculus [17] = assay: Log cell kill = T-C(days)/3.32xTd (Tumor doubling time in days, 1.4 in this assay )on day 9 at 7.7 mg/kg/day in B16 melanoma implanted sc in B6D2F1 mice; assay type: ADME, organism-based; design: route subcutaneous; conditions: in vivo
Mus musculus [18] = assay: Log cell kill = T-C(days)/3.32xTd (Tumor doubling time in days, 1.4 in this assay ) on day 5 at 20 mg/kg/day in B16 melanoma implanted sc in B6D2F1 mice; assay type: ADME, organism-based; design: route subcutaneous; conditions: in vivo
Mus musculus [19] = assay: Tumor growth inhibition of B16 melanoma implanted sc in B6D2F1 mice when 0.4 mL/mouse administered i.v. on day 9 at 7.7 mg/kg/day; assay type: functional; conditions: route intravenous
Mus musculus [20] = assay: Tumor growth delay of B16 melanoma implanted sc in B6D2F1 mice when 0.4 mL/mouse administered i.v. on day 9 at 7.7 mg/kg/day; assay type: functional; conditions: route intravenous
Mus musculus [21] = assay: Tumor growth delay of B16 melanoma implanted sc in B6D2F1 mice when 0.4 mL/mouse administered i.v. on day 7 at 12.4 mg/kg/day; assay type: functional; conditions: route intravenous
Mus musculus [22] = assay: Tumor growth inhibition of B16 melanoma implanted sc in B6D2F1 mice when 0.4 mL/mouse administered i.v. on day 5 at 20 mg/kg/day; assay type: functional; conditions: route intravenous
Mus musculus [23] = assay: Tumor growth inhibition of B16 melanoma implanted sc in B6D2F1 mice when 0.4 mL/mouse administered i.v. on day 7 at 12.4 mg/kg/day; assay type: functional; conditions: route intravenous

| Compound | IC50 (A549) | IC50 (HT-29) | IC50 (MCF7 [1]) | IC50 (MCF7 [2]) | IC50 (A121) | also measured |
| --- | --- | --- | --- | --- | --- | --- |
| CISPLATIN | – | – | – | – | – | IC50 (A2780 [12]; a2780): 1600 nM; IC50 (A2780 [13]; a2780): 450 nM; IC50 (A2780 [14]; a2780): 9000 nM; IC50 (A2780 [15]; a2780): 280 nM |
| COc1cccc2c1C(=O)c1c(O)c3c(c(O)c1C2=O)C[C@@](O)(C(=O)CO)C[C@@H]3O[C@H]1C[C@H](N)[C@H](O)[C@H](C)O1 [DOXORUBICIN] | – | – | – | – | – | IC50 (A2780 [12]; Homo sapiens, A2780): 63 nM; IC50 (A2780 [13]; Homo sapiens, A2780): 5 nM; IC50 (A2780 [14]; Homo sapiens, A2780): 56 nM; IC50 (A2780 [15]; Homo sapiens, A2780): 357 nM |
| CC(=O)O[C@@]12CO[C@@H]1C[C@H](O)[C@@]1(C)C(=O)[C@H](O)C3=C(C)[C@@H](OC(=O)[C@H](O)[C@@H](NC(=O)OC(C)(C)C)c4ccccc4)C[C@@](O)([C@@H](OC(=O)c4ccccc4)[C@H]21)C3(C)C.O.O.O [DOCETAXEL] | – | – | – | – | – | IC50 (A2780 [12]; Homo sapiens, A2780): 1 nM; IC50 (A2780 [13]; Homo sapiens, A2780): 1.2 nM; Log 10 cell kill (Mus musculus [16]): 1.5; Log 10 cell kill (Mus musculus [17]): 0.9; Log 10 cell kill (Mus musculus [18]): 3.3; T/C (Mus musculus [19]): 8%; T-C (Mus musculus [20]): 4.3 days; T-C (Mus musculus [21]): 7.1 days; T/C (Mus musculus [22]): 0%; IC50 (A2780 [14]; Homo sapiens, A2780): 1.4 nM; T/C (Mus musculus [23]): 7%; IC50 (A2780 [15]; Homo sapiens, A2780): 122 nM |
| CCC(=O)O[C@H]1C(=O)[C@@]2(C)[C@H]([C@H](OC(=O)c3ccccc3)[C@]3(O)C[C@H](OC(=O)[C@H](O)[C@H](CC(C)C)NC(=O)OC(C)(C)C)C(C)=C1C3(C)C)[C@]1(OC(C)=O)CO[C@@H]1C[C@@H]2O | 0.53 nM | 0.53 nM | 0.35 nM | 2.8 nM | 0.41 nM | – |
| CCCCCC(=O)O[C@H]1C(=O)[C@@]2(C)[C@H]([C@H](OC(=O)c3ccccc3)[C@]3(O)C[C@H](OC(=O)[C@H](O)[C@H](C=C(C)C)NC(=O)OC(C)(C)C)C(C)=C1C3(C)C)[C@]1(OC(C)=O)CO[C@@H]1C[C@@H]2O | 0.57 nM | 0.9 nM | 0.4 nM | 17.3 nM | 0.5 nM | – |
| CC(=O)O[C@@]12CO[C@@H]1C[C@H](O)[C@@]1(C)C(=O)[C@H](OC(=O)N(C)C)C3=C(C)[C@@H](OC(=O)[C@H](O)[C@H](C=C(C)C)NC(=O)OC(C)(C)C)C[C@@](O)([C@@H](OC(=O)c4ccccc4)[C@H]21)C3(C)C | 0.6 nM | 0.5 nM | 0.13 nM | 4.9 nM | 0.3 nM | – |

Continued, in another order:

| IC50 (A549) | IC50 (HT-29) | IC50 (MCF7 [1]) | IC50 (MCF7 [2]) | Compound | IC50 (A121) | also measured |
| --- | --- | --- | --- | --- | --- | --- |
| 0.29 nM | 0.31 nM | 0.18 nM | 2.2 nM | CCC(=O)O[C@H]1C(=O)[C@@]2(C)[C@H]([C@H](OC(=O)c3ccccc3)[C@]3(O)C[C@H](OC(=O)[C@H](O)[C@H](C=C(C)C)NC(=O)OC(C)(C)C)C(C)=C1C3(C)C)[C@]1(OC(C)=O)CO[C@@H]1C[C@@H]2O | 0.12 nM | Log 10 cell kill (Mus musculus [3]): 2; Log 10 cell kill (Mus musculus [4]): 0.6; T/C (Mus musculus [5]): 0%; T/C (Mus musculus [6]): 34%; T-C (Mus musculus [7]): 9.3 days; T-C (Mus musculus [8]): 3 days; T-C (Mus musculus [9]): 10.9 days; T/C (Mus musculus [10]): 0%; Log 10 cell kill (Mus musculus [11]): 2.3 |
| 0.27 nM | 0.63 nM | 0.55 nM | 12 nM | CC(=O)O[C@H]1C(=O)[C@@]2(C)[C@H]([C@H](OC(=O)c3ccccc3)[C@]3(O)C[C@H](OC(=O)[C@H](O)[C@H](C=C(C)C)NC(=O)OC(C)(C)C)C(C)=C1C3(C)C)[C@]1(OC(C)=O)CO[C@@H]1C[C@@H]2O | 0.46 nM | IC50 (A2780 [12]; Homo sapiens, A2780): 0.3 nM; IC50 (A2780 [13]; Homo sapiens, A2780): 0.4 nM; IC50 (A2780 [14]; Homo sapiens, A2780): 0.36 nM; IC50 (A2780 [15]; Homo sapiens, A2780): 5.7 nM |
| 0.15 nM | 0.41 nM | 0.31 nM | 162 nM | CCNC(=O)O[C@H]1C(=O)[C@@]2(C)[C@H]([C@H](OC(=O)c3ccccc3)[C@]3(O)C[C@H](OC(=O)[C@H](O)[C@H](C=C(C)C)NC(=O)OC(C)(C)C)C(C)=C1C3(C)C)[C@]1(OC(C)=O)CO[C@@H]1C[C@@H]2O | 0.29 nM | – |
| 0.22 nM | 0.18 nM | 0.09 nM | 12.5 nM | CC(=O)O[C@@]12CO[C@@H]1C[C@H](O)[C@@]1(C)C(=O)[C@H](OC(=O)N3CCOCC3)C3=C(C)[C@@H](OC(=O)[C@H](O)[C@H](C=C(C)C)NC(=O)OC(C)(C)C)C[C@@](O)([C@@H](OC(=O)c4ccccc4)[C@H]21)C3(C)C | 0.09 nM | – |
| 0.4 nM | 0.6 nM | 0.4 nM | 8.5 nM | CC(=O)O[C@@]12CO[C@@H]1C[C@H](O)[C@@]1(C)C(=O)[C@H](OC(=O)CC(C)C)C3=C(C)[C@@H](OC(=O)[C@H](O)[C@H](C=C(C)C)NC(=O)OC(C)(C)C)C[C@@](O)([C@@H](OC(=O)c4ccccc4)[C@H]21)C3(C)C | 0.6 nM | – |
| 0.5 nM | 0.6 nM | 0.36 nM | 5.8 nM | CC(=O)O[C@@]12CO[C@@H]1C[C@H](O)[C@@]1(C)C(=O)[C@H](OC(=O)N(C)C)C3=C(C)[C@@H](OC(=O)[C@H](O)[C@H](CC(C)C)NC(=O)OC(C)(C)C)C[C@@](O)([C@@H](OC(=O)c4ccccc4)[C@H]21)C3(C)C | 0.4 nM | – |
